From patent US12599134B2, “Herbicidal compositions comprising acetochlor” (BASF SE, priority 2024, dated 2026)

Assays:
[1] = test system: emerged weeds; assay: Post-emergence application in greenhouse trials (scale 0 to 100; expected value by Colby); format: in vivo
Experimental: (§1) In the examples below, using the method of S. R. Colby (1967) “Calculating synergistic and antagonistic responses of herbicide combinations”, Weeds 15, p. 22ff., the value E, which is expected if the activity of the individual active compounds is only additive, was calculated:
(§2) [formula] • where • X=percent activity using active herbicide A at an application rate a; • Y=percent activity using active herbicide B (e.g. acetochlor) at an application rate b; • E=expected activity (in %) by A+B at application rates a+b.
(§3) If the value found experimentally is higher than the value E calculated according to Colby, a synergistic effect is present.
The culture containers used were plastic pots containing loamy sand with approximately 3.0% of humus as substrate. The seeds of the test plants were sown separately for each species.
[…] To this end, the test plants were either sown directly, and grown in the same containers, or they were first grown separately as seedlings and transplanted into the test containers a few days prior to treatment.
Depending on the species, the plants were kept at 10-25° C. and 20-35° C., respectively. The test period extended over 2 to 4 weeks. During this time, the plants were tended and their response to the individual treatments was evaluated.
(§4) Evaluation was carried out using a scale from 0 to 100. 100 means no emergence of the plants, or complete destruction of at least the above-ground parts, and 0 means no damage or normal course of growth. A good herbicidal activity is given at values of at least 70, and very good herbicidal activity is given at values of at least 85.
Herbicide A-1 and acetochlor were, together with addition of 0.5% MSO (methylated sed oil) as adjuvant, formulated in water as distribution medium (water volume 200 l/ha) and sprayed with commercial flat fan nozzles.
Herbicide A-1, acetochlor and mesotrione were, together with addition of 0.5 v/v % MSO (methylated sed oil) as adjuvant, formulated in water as distribution medium (water volume 200 l/ha) and sprayed with commercial flat fan nozzles.
Herbicide A-1, acetochlor and topramezone were, together with addition of 0.5 v/v % MSO (methylated sed oil) as adjuvant, formulated in water as distribution medium (water volume 200 l/ha) and sprayed with commercial flat fan nozzles.

[2] = test system: emerged weeds; assay: Post-emergence application in field trials (expected value by Colby); format: in vivo
Experimental: as §1, §2, §3, §4
Herbicide A-1 and acetochlor were, together with addition of 0.25% MSO (methylated sed oil) as adjuvant, formulated in water as distribution medium (water volume 200 l/ha) and sprayed with commercial flat fan nozzles.

[3] = ABUTH, growth stage 15, 7 DAT, g ai/ha: A-1 0.5, B 200, C-24 50
[4] = ABUTH, growth stage 15, 7 DAT, g ai/ha: A-1 0.5, B 200, C-25 3.125
[5] = ABUTH, growth stage 15, 21 DAT, g ai/ha: A-1 0.25, B 200, C-24 50
[6] = AVEFA, growth stage 11, 7 DAT, g ai/ha: A-1 2, B 200, C-25 3.125
[7] = AVEFA, growth stage 11, 21 DAT, g ai/ha: A-1 2, B 200, C-24 50
[8] = AVEFA, growth stage 11, 21 DAT, g ai/ha: A-1 2, B 200, C-25 3.125
[9] = AVEFA, growth stage 12, 7 DAT, g ai/ha: A-1 2, B 400
[10] = AVEFA, growth stage 12, 19 DAT, g ai/ha: A-1 2, B 400
[11] = BRADC, growth stage 11, 21 DAT, g ai/ha: A-1 2, B 200, C-25 3.125
[12] = COMBE, growth stage 13, 21 DAT, g ai/ha: A-1 1, B 200, C-24 50
[13] = COMBE, growth stage 13, 21 DAT, g ai/ha: A-1 1, B 200, C-25 3.125
[14] = ECHCG, growth stage 12, 21 DAT, g ai/ha: A-1 2, B 200, C-24 50
[15] = ECHCG, growth stage 12, 21 DAT, g ai/ha: A-1 2, B 200, C-25 3.125
[16] = ECHCG, growth stage 13, 7 DAT, g ai/ha: A-1 0.5, B 400
[17] = ECHCG, growth stage 13, 19 DAT, g ai/ha: A-1 0.5, B 400
[18] = ELEIN, growth stage 14, 7 DAT, g ai/ha: A-1 2, B 400
[19] = ERICA, growth stage 19, 7 DAT, g ai/ha: A-1 2, B 200, C-25 3.125
[20] = GLXMA, growth stage 18, 7 DAT, g ai/ha: A-1 1, B 200, C-25 3.125
[21] = KCHSC, growth stage 29, 21 DAT, g ai/ha: A-1 1, B 200, C-25 3.125
[22] = KCHSC, growth stage 29, 21 DAT, g ai/ha: A-1 2, B 200, C-25 3.125
[23] = LOLMU, growth stage 11, 7 DAT, g ai/ha: A-1 2, B 200, C-25 3.125
[24] = LOLMU, growth stage 11, 21 DAT, g ai/ha: A-1 2, B 200, C-25 3.125
[25] = ZEAMX, growth stage 12, 21 DAT, g ai/ha: A-1 2, B 200, C-24 50
[26] = ZEAMX, growth stage 12, 21 DAT, g ai/ha: A-1 2, B 200, C-25 3.125
[27] = AMARE, growth stage 31-49, height 10-12 cm, 7 DAT, g ai/ha: A-1 12.5, B 1050
[28] = AMARE, growth stage 31-49, height 10-12 cm, 21 DAT, g ai/ha: A-1 12.5, B 1050
[29] = DIGSA, growth stage 22, height 10-15 cm, 7 DAT, g ai/ha: A-1 12.5, B 1050
[30] = DIGSA, growth stage 22, height 10-15 cm, 21 DAT, g ai/ha: A-1 12.5, B 1050
[31] = DIGSA, growth stage 22, height 10-15 cm, 42 DAT, g ai/ha: A-1 12.5, B 1050
[32] = ECHCG, growth stage 22-23, height 19-30 cm, 7 DAT, g ai/ha: A-1 12.5, B 1050
[33] = ECHCG, growth stage 22-23, height 19-30 cm, 7 DAT, g ai/ha: A-1 18, B 1050
[34] = ECHCG, growth stage 22-23, height 19-30 cm, 21 DAT, g ai/ha: A-1 12.5, B 1050
[35] = ECHCG, growth stage 22-23, height 19-30 cm, 21 DAT, g ai/ha: A-1 18, B 1050
[36] = ECHCG, growth stage 22-23, height 19-30 cm, 42 DAT, g ai/ha: A-1 12.5, B 1050
[37] = ECHCG, growth stage 22-23, height 19-30 cm, 42 DAT, g ai/ha: A-1 18, B 1050
[38] = GLXMA, growth stage 12-13, height 7-11 cm, 42 DAT, g ai/ha: A-1 18, B 1050
[39] = HORVW, growth stage 23-29, height 20-25 cm, 21 DAT, g ai/ha: A-1 12.5, B 1050
[40] = HORVW, growth stage 23-29, height 20-25 cm, 21 DAT, g ai/ha: A-1 18, B 1050
[41] = HORVW, growth stage 23-29, height 20-25 cm, 28 DAT, g ai/ha: A-1 12.5, B 1050
[42] = HORVW, growth stage 23-29, height 20-25 cm, 28 DAT, g ai/ha: A-1 18, B 1050
[43] = ZEAMX, growth stage 15-16, height 50-60 cm, 7 DAT, g ai/ha: A-1 12.5, B 1050
[44] = ZEAMX, growth stage 15-16, height 50-60 cm, 21 DAT, g ai/ha: A-1 12.5, B 1050
[45] = ZEAMX, growth stage 15-16, height 50-60 cm, 28 DAT, g ai/ha: A-1 12.5, B 1050
[46] = ZEAMX, growth stage 15-16, height 50-60 cm, 28 DAT, g ai/ha: A-1 18, B 1050

## CCOC(=O)COc1ccccc1Oc1nc(-n2c(=O)cc(C(F)(F)F)n(C)c2=O)c(F)cc1Cl [A-1, ethyl 2-[2-[[3-chloro-5-fluoro-6-[3-methyl-2,6-dioxo-4-(trifluoromethyl)pyrimidin-1-yl]-2-pyridyl]oxy]phenoxy]acetate]
[1]; [3]
  % Herbicidal activity: 85%
[1]; [4]
  % Herbicidal activity: 85%
[1]; [5]
  % Herbicidal activity: 60%
[1]; [6]
  % Herbicidal activity: 55%
[1]; [7]
  % Herbicidal activity: 30%
[1]; [8]
  % Herbicidal activity: 30%
[1]; [9]
  % Herbicidal activity: 75%
[1]; [10]
  % Herbicidal activity: 75%
[1]; [11]
  % Herbicidal activity: 30%
[1]; [12]
  % Herbicidal activity: 80%
[1]; [13]
  % Herbicidal activity: 80%
[1]; [14]
  % Herbicidal activity: 30%
[1]; [15]
  % Herbicidal activity: 30%
[1]; [16]
  % Herbicidal activity: 40%
[1]; [17]
  % Herbicidal activity: 15%
[1]; [18]
  % Herbicidal activity: 75%
[1]; [19]
  % Herbicidal activity: 80%
[1]; [20]
  % Herbicidal activity: 90%
[1]; [21]
  % Herbicidal activity: 60%
[1]; [22]
  % Herbicidal activity: 75%
[1]; [23]
  % Herbicidal activity: 10%
[1]; [24]
  % Herbicidal activity: 10%
[1]; [25]
  % Herbicidal activity: 40%
[1]; [26]
  % Herbicidal activity: 40%
[2]; [27]
  % Herbicidal activity: 95%
[2]; [28]
  % Herbicidal activity: 80%
[2]; [29]
  % Herbicidal activity: 75%
[2]; [30]
  % Herbicidal activity: 70%
[2]; [31]
  % Herbicidal activity: 70%
[2]; [32]
  % Herbicidal activity: 55%
[2]; [33]
  % Herbicidal activity: 55%
[2]; [34]
  % Herbicidal activity: 50%
[2]; [35]
  % Herbicidal activity: 55%
[2]; [36]
  % Herbicidal activity: 45%
[2]; [37]
  % Herbicidal activity: 50%
[2]; [38]
  % Herbicidal activity: 85%
[2]; [39]
  % Herbicidal activity: 70%
[2]; [40]
  % Herbicidal activity: 80%
[2]; [41]
  % Herbicidal activity: 95%
[2]; [42]
  % Herbicidal activity: 95%
[2]; [43]
  % Herbicidal activity: 80%
[2]; [44]
  % Herbicidal activity: 70%
[2]; [45]
  % Herbicidal activity: 40%
[2]; [46]
  % Herbicidal activity: 70%

## CCOCN(C(=O)CCl)c1c(C)cccc1CC [B, acetochlor]
[1]; [3]
  % Herbicidal activity: 0%
[1]; [4]
  % Herbicidal activity: 0%
[1]; [5]
  % Herbicidal activity: 0%
[1]; [6]
  % Herbicidal activity: 0%
[1]; [7]
  % Herbicidal activity: 0%
[1]; [8]
  % Herbicidal activity: 0%
[1]; [9]
  % Herbicidal activity: 0%
[1]; [10]
  % Herbicidal activity: 0%
[1]; [11]
  % Herbicidal activity: 5%
[1]; [12]
  % Herbicidal activity: 5%
[1]; [13]
  % Herbicidal activity: 5%
[1]; [14]
  % Herbicidal activity: 5%
[1]; [15]
  % Herbicidal activity: 5%
[1]; [16]
  % Herbicidal activity: 10%
[1]; [17]
  % Herbicidal activity: 60%
[1]; [18]
  % Herbicidal activity: 0%
[1]; [19]
  % Herbicidal activity: 15%
[1]; [20]
  % Herbicidal activity: 0%
[1]; [21]
  % Herbicidal activity: 0%
[1]; [22]
  % Herbicidal activity: 0%
[1]; [23]
  % Herbicidal activity: 0%
[1]; [24]
  % Herbicidal activity: 0%
[1]; [25]
  % Herbicidal activity: 5%
[1]; [26]
  % Herbicidal activity: 5%
[2]; [27]
  % Herbicidal activity: 40%
[2]; [28]
  % Herbicidal activity: 25%
[2]; [29]
  % Herbicidal activity: 10%
[2]; [30]
  % Herbicidal activity: 10%
[2]; [31]
  % Herbicidal activity: 10%
[2]; [32]
  % Herbicidal activity: 0%
[2]; [33]
  % Herbicidal activity: 0%
[2]; [34]
  % Herbicidal activity: 0%
[2]; [35]
  % Herbicidal activity: 0%
[2]; [36]
  % Herbicidal activity: 0%
[2]; [37]
  % Herbicidal activity: 0%
[2]; [38]
  % Herbicidal activity: 20%
[2]; [39]
  % Herbicidal activity: 10%
[2]; [40]
  % Herbicidal activity: 10%
[2]; [41]
  % Herbicidal activity: 10%
[2]; [42]
  % Herbicidal activity: 10%
[2]; [43]
  % Herbicidal activity: 8%
[2]; [44]
  % Herbicidal activity: 0%
[2]; [45]
  % Herbicidal activity: 0%
[2]; [46]
  % Herbicidal activity: 0%

## CS(=O)(=O)c1ccc(C(=O)C2C(=O)CCCC2=O)c([N+](=O)[O-])c1 [C-24, mesotrione]
[1]; [3]
  % Herbicidal activity: 60%
[1]; [5]
  % Herbicidal activity: 90%
[1]; [7]
  % Herbicidal activity: 10%
[1]; [12]
  % Herbicidal activity: 90%
[1]; [14]
  % Herbicidal activity: 95%
[1]; [25]
  % Herbicidal activity: 0%

## Cc1c(C(=O)c2cnn(C)c2O)ccc(S(C)(=O)=O)c1C1=NOCC1 [C-25, topramezone]
[1]; [4]
  % Herbicidal activity: 50%
[1]; [6]
  % Herbicidal activity: 10%
[1]; [8]
  % Herbicidal activity: 10%
[1]; [11]
  % Herbicidal activity: 55%
[1]; [13]
  % Herbicidal activity: 35%
[1]; [15]
  % Herbicidal activity: 80%
[1]; [19]
  % Herbicidal activity: 35%
[1]; [20]
  % Herbicidal activity: 20%
[1]; [21]
  % Herbicidal activity: 10%
[1]; [22]
  % Herbicidal activity: 10%
[1]; [23]
  % Herbicidal activity: 0%
[1]; [24]
  % Herbicidal activity: 0%
[1]; [26]
  % Herbicidal activity: 0%
